In patent US20200197418A1, “COMPOUNDS FOR THE TREATMENT OF DISEASES CAUSED BY OXALATE ACCUMULATION” (UNIVERSIDAD DE GRANADA, priority 2017, published 2020):
Like-named read-outs stand apart in the source and are kept apart here. Marks after values point to notes of the source that are not given here.

How the values were obtained:
[1] = test system: Agxt1-KO mouse hepatocyte cultures; test: Oxalate reduction assay in primary hepatocyte cultures from hyperoxaluric mice, glycolate-loaded; format: cell-based; conditions: for Relative oxalate at 10 μM: compound at 10 μM, Agxt1-/- mouse hepatocytes with 5 mM glycolate, mean ± standard deviation; for EC50: Agxt1-KO mouse hepatocytes, 5 mM glycolate
Protocol: Isolation and culture of hepatocytes: The isolation of hepatocytes from AGT enzyme-deficient mice was carried out as described in the literature. A total of 3.0×10^5 cells/well were then cultured in 6-well plates in William's E medium supplemented with foetal bovine serum (5%), I-glutamine (2 mM), penicillin (100 U/ml), streptomycin (100 μg/ml), insulin (2.2 mIU/ml) and hydrocortisone (0.3 μg/ml). After 5 h, the medium was switched to serum-free complete William's E medium (Biochrom, Cambridge, UK), and the cells were treated with increasing concentrations of each of the drugs in the presence of 5 mM glycolate. Samples of the culture medium were collected at 24, 48 and 72 h after treatment, to quantify oxalate.
Determination of oxalate: The determination of oxalate excreted into the medium was carried out by assaying in the presence of oxalate oxidase using a commercial kit (Trinity Biotech, Co Wicklow, Ireland), following the manufacturer's indications. GraphPad Prism 5 software was used for the graphical representation of the data as the mean±SD.
The efficacy of reducing oxalate production was measured in primary hepatocyte cultures obtained from hyperoxaluric mice (Agxt1^−/−). Cultures of less than 5 days were used to prevent possible interferences due to cell differentiation. For the short-term increase in the production of oxalate in cells and for obtaining detectable levels in standard enzymatic assays, glycolate was added to the culture medium at a concentration of 5 mM. Firstly, the viability of the hepatocytes treated with increasing concentrations of each drug up to 200 μM in the presence of glycolate was tested in comparative assays with control hepatocytes not treated with a drug and at different times.
Oxalate reduction assays were then carried out. Samples of the culture medium were taken every 24 hours after treatment with each of the compounds under evaluation. In each of these samples was measured the concentration of oxalate excreted into the medium by Agxt1^−/− hepatocytes. The determination of oxalate in the samples was carried out using a colorimetric enzymatic assay based on two consecutive reactions catalysed by the enzymes oxalate oxidase and peroxidase, respectively.

[2] = test system: mice with PH-1 (Agxt1-KO); conditions: cited from earlier work
[3] = Hepatocyte, 24 h after treatment, read-out: EC50 (24 h), reduced production of oxalate
[4] = Hepatocyte, 48 h after treatment, read-out: EC50 (48 h), reduced production of oxalate
[5] = Hepatocyte, 72 h after treatment, read-out: EC50 (72 h), reduced production of oxalate

With `C#CCCCC(=O)Nc1ccc(C(=O)c2ccc(NCc3ccc(-c4ccc(O)c(C(=O)O)c4)o3)cc2)cc1.N` the “Relative oxalate at 10 μM” value [1] was 0.144 ± 0.322.
With `O=C(O)c1cc(-c2ccoc2)ccc1O` the “Relative oxalate at 10 μM” value [1] was 0.89 ± 0.16.
`O=C(O)c1nnsc1Sc1ccc(Cl)cc1` [CCPST, reference compound] gave an EC50 ([1]; 24 h after treatment, read-out: EC50 (24 h), reduced production of oxalate) of 25.3 µM, an EC50 ([1]; 48 h after treatment, read-out: EC50 (48 h), reduced production of oxalate) of 32.9 µM and an EC50 ([1]; 72 h after treatment, read-out: EC50 (72 h), reduced production of oxalate) of 33.9 µM. For the same compound, the “effectiveness in reducing oxalate levels” value [2] was “reducing oxalate levels”.
For `O=C(O)c1ccc(-c2ccc(O)cc2)cc1O`, the “Relative oxalate at 10 μM” value [1] was 0.82 ± 0.01.
For `O=C(O)c1ccc(-c2cccs2)cc1O`, the “Relative oxalate at 10 μM” value [1] was 0.74 ± 0.16.
In the case of `COc1cccc(-c2ccc(C(=O)O)c(O)c2)c1`, the “Relative oxalate at 10 μM” value [1] is reported as 0.83 ± 0.03.
For `O=C(O)c1ccc(-c2ccc(CO)o2)cc1O`, the “Relative oxalate at 10 μM” value [1] was 0.88 ± 0.01.
In the case of `O=C(O)c1ccc(-c2ccccc2COc2cc(F)cc(F)c2)cc1O`, the “Relative oxalate at 10 μM” value [1] is reported as 0.72 ± 0.16.
In the case of `Oc1ccc(-c2ccoc2)cc1O`, the “Relative oxalate at 10 μM” value [1] is reported as 1.02 ± 0.3.
In the case of `O=Cc1ccc(-c2ccc(O)c(C(=O)O)c2)o1` [drawing 17], the “Relative oxalate at 10 μM” value [1] is reported as −0.06 ± 0.29^a.
In the case of `O=C(O)c1cc(-c2ccc(F)cc2F)ccc1O`, the “Relative oxalate at 10 μM” value [1] is reported as 0.88 ± 0.08.
Work on `O=Cc1ccc(-c2ccc(O)c(C(=O)O)c2)o1` [Compound 78, 5-(5-formyl-2-furyl)-2-hydroxybenzoic acid] yielded an EC50 [1, 3] of 3.45 µM, an EC50 [1, 4] of 8.36 µM and an EC50 [1, 5] of 11.2 µM.
For `O=Cc1ccc(-c2ccc(C(=O)O)c(O)c2)o1`, the “Relative oxalate at 10 μM” value [1] was 0.88 ± 0.18.
Work on `O=C(O)c1ccc(-c2ccco2)cc1O` [Compound 73, 4-(2-furyl)-2-hydroxybenzoic acid] yielded an EC50 [1, 3] of 9.35 µM and an EC50 [1, 4] of 92.2 µM.
In the case of `CC(=O)c1ccc(-c2ccc(C(=O)O)c(O)c2)s1`, the “Relative oxalate at 10 μM” value [1] is reported as 0.89 ± 0.14.
With `N.O=C(O)c1cc(-c2ccc(CNc3ccc([N+](=O)[O-])cc3)o2)ccc1O` the “Relative oxalate at 10 μM” value [1] was −0.236 ± 0.115.
With `O=C(O)c1ccc(-c2ccncc2)cc1O` the “Relative oxalate at 10 μM” value [1] was 0.88 ± 0.03.
With `O=C(O)c1cc(-c2cccs2)ccc1O` the “Relative oxalate at 10 μM” value [1] was 0.82 ± 0.01.
For `O=C(O)c1cc([N+](=O)[O-])c(-c2ccco2)cc1O`, the “Relative oxalate at 10 μM” value [1] was 0.86 ± 0.04.
For `N.O=C(O)c1cc(-c2ccc(CNc3ccc(Br)cc3)o2)ccc1O`, the “Relative oxalate at 10 μM” value [1] was 0.373 ± 0.063.
With `O=C(O)c1cc(-c2ccc(CO)o2)ccc1O` the “Relative oxalate at 10 μM” value [1] was 0.88 ± 0.19.
For `O=C(O)c1cc(-c2ccco2)ccc1O` [Compound 74, 5-(2-furyl)-2-hydroxybenzoic acid], the EC50 [1, 3] was 3.59 µM, the EC50 [1, 4] was 7.88 µM and the EC50 [1, 5] was 9.2 µM.
In the case of `COc1cc(-c2ccc(C=O)o2)ccc1C(=O)O`, the “Relative oxalate at 10 μM” value [1] is reported as 0.82 ± 0.04.
With `O=C(O)c1cc(-c2ccc(OCc3ccccc3)cc2)ccc1O` the “Relative oxalate at 10 μM” value [1] was 0.8 ± 0.16.
With `O=C(O)c1ccc(-c2ccccc2COc2cccc(C(F)(F)F)c2)cc1O` the “Relative oxalate at 10 μM” value [1] was 0.62 ± 0.29.
For `O=C(O)c1cc(-c2ccco2)ccc1O` [drawing 13], the “Relative oxalate at 10 μM” value [1] was −0.25 ± 0.2.
In the case of `COc1ccc(COc2ccc(-c3ccc(C(=O)O)c(O)c3)cc2)cc1`, the “Relative oxalate at 10 μM” value [1] is reported as 0.90 ± 0.16.
With `O=C(O)c1ccc(-c2ccco2)cc1O` [drawing 12] the “Relative oxalate at 10 μM” value [1] was 0.87 ± 0.15.
In the case of `O=C(O)c1cc(-c2ccccc2COc2cccc(C(F)(F)F)c2)ccc1O`, the “Relative oxalate at 10 μM” value [1] is reported as 0.68 ± 0.21.
